# Measured values published in patent US20070218475A1, “Efficient drug screening for protein targets” (priority 2005, published 2007).
# Target: T1, mouse Ptch (Mus musculus, UniProt Q61115)
# T1 construct: expressed in transfected cells; host or cells: Cos-1
# T1 sequence (Q61115 1-1434): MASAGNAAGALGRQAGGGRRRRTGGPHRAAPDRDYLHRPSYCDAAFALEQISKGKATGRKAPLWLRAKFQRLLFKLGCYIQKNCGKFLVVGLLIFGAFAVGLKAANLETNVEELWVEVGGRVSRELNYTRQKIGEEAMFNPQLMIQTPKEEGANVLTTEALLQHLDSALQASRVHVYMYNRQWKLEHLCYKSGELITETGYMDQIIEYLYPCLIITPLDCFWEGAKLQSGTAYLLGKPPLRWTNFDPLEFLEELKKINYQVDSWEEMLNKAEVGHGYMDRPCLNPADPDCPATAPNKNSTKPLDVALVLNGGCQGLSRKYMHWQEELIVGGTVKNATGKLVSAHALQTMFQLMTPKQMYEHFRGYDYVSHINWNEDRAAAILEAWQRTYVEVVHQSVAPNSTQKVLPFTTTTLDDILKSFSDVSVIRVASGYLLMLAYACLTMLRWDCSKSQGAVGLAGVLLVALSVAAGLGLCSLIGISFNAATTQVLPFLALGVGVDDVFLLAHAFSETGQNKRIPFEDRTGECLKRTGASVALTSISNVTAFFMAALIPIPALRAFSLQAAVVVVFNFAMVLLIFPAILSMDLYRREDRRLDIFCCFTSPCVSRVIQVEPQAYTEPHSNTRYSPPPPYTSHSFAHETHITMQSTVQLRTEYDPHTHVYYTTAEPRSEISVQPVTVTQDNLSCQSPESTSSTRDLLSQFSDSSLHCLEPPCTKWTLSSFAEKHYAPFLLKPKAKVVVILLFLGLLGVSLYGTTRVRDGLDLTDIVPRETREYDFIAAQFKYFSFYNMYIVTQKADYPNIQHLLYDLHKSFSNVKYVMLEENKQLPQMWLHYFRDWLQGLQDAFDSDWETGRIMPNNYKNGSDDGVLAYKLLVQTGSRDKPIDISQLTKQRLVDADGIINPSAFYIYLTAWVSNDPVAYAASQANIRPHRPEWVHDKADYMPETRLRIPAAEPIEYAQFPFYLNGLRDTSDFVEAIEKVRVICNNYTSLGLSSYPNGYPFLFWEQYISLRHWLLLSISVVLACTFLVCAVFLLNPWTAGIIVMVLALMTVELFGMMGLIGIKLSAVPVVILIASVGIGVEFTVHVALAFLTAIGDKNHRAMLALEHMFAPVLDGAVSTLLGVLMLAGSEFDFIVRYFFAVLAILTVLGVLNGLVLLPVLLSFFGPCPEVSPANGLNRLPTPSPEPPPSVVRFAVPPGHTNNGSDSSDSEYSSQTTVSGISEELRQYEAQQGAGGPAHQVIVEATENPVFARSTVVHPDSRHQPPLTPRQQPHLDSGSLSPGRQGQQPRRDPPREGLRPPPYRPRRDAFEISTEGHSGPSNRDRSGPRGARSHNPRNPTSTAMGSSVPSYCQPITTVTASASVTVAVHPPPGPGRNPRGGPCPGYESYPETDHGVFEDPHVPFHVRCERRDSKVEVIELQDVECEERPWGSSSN
# Assay: Fluorescence (BODIPY-cyclopamine) binding assay, Cos-1 cells expressing Ptch
# Details: flow cytometry
# Description: Fluorescence binding assay: Cos-1 cells were transfected in 6-well plates with the described expression vectors (1 μg/well), and after two days, incubated in DMEM containing 10% fetal bovine serum, 5 nM BODIPY-cyclopamine, and various concentrations of the indicated competitors for 4-6 h at 37° C. For flow cytometry experiments, the cells were then trypsinized, collected by centrifugation, resuspended in phenol red-free DMEM containing 0.5% bovine calf serum, and analyzed for green fluorescence (FACScan, Beckton Dickinson). A fluorescence intensity range that excludes non-transfected cells was then selected for quantification of specific BODIPY-cyclopamine binding (see brackets in FIGS. 2C, 2D, and 3A). Curve fitting analysis was performed with Kaleidograph (Synergy Software).
compound,measurement,value
CC1=C2CC3C(CC=C4C[C@@H](O)CCC43C)C2CCC12O[C@@H]1CC(C)CN(CCNC(=O)CCCCCNC(=O)CCC3=[N+]4C(=Cc5c(C)cc(C)n5[B-]4(F)F)C=C3)C1C2C (stereo partly shown) [BODIPY-cyclopamine],binding to cells expressing mouse Ptch,did not bind
